This series is described as follows: Human HepG2 cell viability assay in 384 well format. Type of series: toxicity, cell-based. More on the design: dose 125 nL, time 70.5 hour; cytotoxicity at 70.5 h: concentration not given beside the values. Conditions: HepG2 cells, read-out: Inhibition.
For the molecule `CNC(=O)CS(=O)(=O)C1CCN(S(=O)(=O)c2c(F)cccc2F)CC1`, the cytotoxicity at 70.5 h was -7.9%. To `O=C1CC(c2cccc(O)c2)c2sc(C(=O)O)c(-c3ccccc3)c2N1` (configuration not stated) belongs 26.4%; to `CC(C)n1[nH]c(=O)c2c1NC(=O)CC2c1ccc2ncccc2c1` (configuration not stated), 5.19%. On to `O=C(NCCC1=CCCCC1)C1CCN(c2ccc3nncn3n2)CC1`, for which the cytotoxicity at 70.5 h was found to be 3.11%. To `CC(C)n1[nH]c(=O)c2c1NC(=O)CC2c1cccc(OC(F)F)c1` (configuration not stated) belongs 6.29%; to `CC(C)(C)n1ncc2c1NC(=O)CC2c1ccsc1` (configuration not stated), -5.9%; to `CS(=O)(=O)N1CCN(C(=O)Cn2ccc3c(Cl)cccc32)CC1`, 8.68%. To `COC(=O)Cn1c(=O)nc2n1C(=O)N(c1ccc(Cl)cc1)C2` belongs 8.74%; to `COC(=O)Cn1c(=O)nc2n1C(=O)N(c1ccccc1)C2`, -8.59%. To `CC(C)(C)n1ncc2c1NC(=O)CC2c1ccc(OCC(N)=O)cc1` (configuration not stated) belongs -10.7%. Turning to `CC(C)(C)n1ncc2c1NC(=O)CC2c1ccccc1` (configuration not stated), the cytotoxicity at 70.5 h is -7.73%. Next, `O=C1CC(c2ccco2)c2sc(C(=O)O)c(-c3ccccc3)c2N1` (configuration not stated): -13.5%; `CCOc1ccc(CNCCCn2ccnc2)cc1Br`: 6.06%. As to `O=C(O)c1nnn(Cc2cccc(C(F)(F)F)c2)c1-c1cccnc1`, the cytotoxicity at 70.5 h was -30.6%. Next, `O=C(Cn1cc(C(=O)O)ccc1=O)Nc1ccc(Cl)cc1F`: -38%. To `COc1ccc(OC)c(C2C3=C(COC3=O)Nc3[nH]nc(C)c32)c1` (configuration not stated) belongs 32%.

Regarding `O=C1N(c2ccc(Br)cc2)Cc2nc(=O)[nH]n21`, the cytotoxicity at 70.5 h was -16.4%. To `O=C(O)c1cc2c(nc1O)CC(c1cccs1)CC2=O` (configuration not stated) belongs -3.98%.

For the molecule `O=S(=O)(NC1=NCN(CCc2cccs2)CN1)c1ccccc1`, the cytotoxicity at 70.5 h was -19.9%. To `O=C1CC(c2ccc(C(=O)O)cc2)c2ncn(-c3cccc(F)c3)c2N1` (configuration not stated) belongs -24.3%; to `O=C1CC(c2ccc(C(=O)O)cc2)c2ncn(-c3ccccc3)c2N1` (configuration not stated), -6.45%. To `COc1cc(CCC(C)O)c(OC)c2c1OCO2` (configuration not stated) belongs -4.78%. To `Cc1c(C)n(Cc2ccccn2)c2nc3c(c(N)c12)CCCC3` belongs -14.4%; to `CCCNC(=O)c1cc2c(nc1O)CCC(C)C2` (configuration not stated), 22.8%.

Consider `O=c1ccc(-c2cccs2)nn1CN1CCCCCC1`, for which the cytotoxicity at 70.5 h is -24.8%. Next, `CC(=O)Nc1ccc(-n2ccc3nc(N4CCCC4)ncc3c2=O)cc1`: 1.42%; `Cc1ccc(C)c(-n2ccc3nc(N4CCCC4)ncc3c2=O)c1`: -7.78%; `Cc1ccc(NS(=O)(=O)CC2=NC(=O)n3cccc3C2=O)cc1`: -36.1%. Next, `O=c1[nH]c2c(c(=O)n1C1CCCCC1)CCC2Nc1ccccc1Cl` (configuration not stated): 21.6%; `CCc1ccc(NS(=O)(=O)CC2=NC(=O)n3cccc3C2=O)cc1`: -5.39%; `COCCN1C(=O)CC(N2CCN(c3ccc(F)cc3)CC2)C1=O` (configuration not stated): 13.6%. To `CC(C)CCNC(=O)c1sccc1N(C)S(=O)(=O)c1ccccc1` belongs 33.2%; to `CCCNC(=O)c1sccc1N(C)S(=O)(=O)c1ccc(Cl)cc1`, 20.9%; to `COc1cccc(N2CCN(CC(O)c3ccc(C)cc3)CC2)c1` (configuration not stated), 3.16%. On to `O=C(O)c1nnn(-c2ccc(F)c(F)c2)c1-c1ccncc1`, for which the cytotoxicity at 70.5 h was -8.76%.

Regarding `CCc1ccccc1-n1nnc(C(=O)O)c1-c1ccccn1`, the cytotoxicity at 70.5 h is -8.12%. Next, `NC(=O)C1CCN(c2nc3nccc(-c4ccccn4)c3c(=O)[nH]2)CC1`: -3.55%. To `CCN(c1ccc(C(=O)NCCCN2CCOCC2)cc1)S(=O)(=O)CC` belongs 17.8%; to `CCS(=O)(=O)Nc1ccc(C(=O)NCCCN2CCCC2)cc1`, -4.61%. Next, `COc1cccc(C2CC(=O)Nc3nc(N4CCOCC4)sc32)c1OC` (configuration not stated): -8.01%; `CCCNC(=O)c1c(-n2cnnn2)sc2c1CCC2`: -10.4%. For `O=C(Nc1ccccc1)c1nn(C2CCS(=O)(=O)C2)c2c1CCCC2` (configuration not stated), the cytotoxicity at 70.5 h is -11.3%. Next, `O=c1nc(CNc2ccccc2)[nH]n1Cc1ccccc1`: -13.1%. To `CC1CCN(c2nc(O)cc(C3CC(=O)N(C4CCCCC4)C3)n2)CC1` (configuration not stated) belongs -8.25%; to `Nc1cc(-c2c[nH]nc2C2CCCCN2C(=O)C2CCCC2)ccn1` (configuration not stated), -7.49%; to `CN(C)S(=O)(=O)c1ccc(CNC(=O)C2CC(=O)N(C(C)(C)C)C2)cc1` (configuration not stated), -1.42%.

As for `Cc1nc(NC2CCOCC2)cc(C2CCN2S(C)(=O)=O)n1` (configuration not stated), the cytotoxicity at 70.5 h is -6.12%. Next, `Cc1cc(C)c2nc(C)c(C(=O)N3CCC(CCN(C)C)CC3)cc2c1`: -1.81%; `Cc1ccnc(C2CN(Cc3cnn(-c4ccccc4C(=O)O)c3)C2)n1`: -6.57%. With `CN(C)c1nccnc1C1CCN(c2cnccn2)CC1`, the cytotoxicity at 70.5 h is -3.32%. To `Cc1cc(C(F)(F)F)nc(C2(C)CCCN2CC(N)=O)n1` (configuration not stated) belongs 11.5%; to `CN(C)c1nccnc1C1CCCN(c2cnccn2)C1` (configuration not stated), -3.09%. As to `CN1CCC(c2nnc3n2CCN(S(=O)(=O)c2ccccc2)C3)CC1`, the cytotoxicity at 70.5 h was -5.15%. For the molecule `CCOCCN1CCC(c2cncc(C)n2)CC1`, the cytotoxicity at 70.5 h is -1.63%. Next, `O=C(O)c1ccc(CN2CCCC(Cc3ccn[nH]3)C2)cc1` (configuration not stated): -4.91%. Next, `CC(C)S(=O)(=O)N1C[C@@H](O)[C@H](N(C)Cc2ccc(F)cc2)C1`: 0.65%; `CCn1cc(C(=O)N2C[C@H]3C[C@H](Oc4ccccc4)C[C@H]3C2)cn1`: -0.374%; `O=C(N[C@@H]1CN(Cc2c[nH]nc2-c2ccccc2)C[C@H]1O)c1cc[nH]n1`: -9.21%.

`CCc1cccc2cc(CN)c(=O)[nH]c12`: the cytotoxicity at 70.5 h is -10%. To `COCCNc1ncc(-c2onc(C)c2C)c(-c2ccco2)n1` belongs -5.67%; to `Cc1noc(-c2cnc(NC(C)C)nc2-c2ccco2)c1C`, -13.3%.

In the case of `CS(=O)(=O)N1CCC(n2nnn(-c3ccccc3)c2=O)CC1`, the cytotoxicity at 70.5 h is -1.71%. Next, `Oc1nc(C2CC2)nc2c1nnn2C1CCN(Cc2ccoc2)CC1`: -6.55%; `COCCN1CCCC(c2ccnc3c(C(N)=O)cnn23)C1` (configuration not stated): 3.17%; `COCC(=O)N(C)Cc1nc(N(C)C)ncc1-c1ccncc1`: -11.3%. Next, `O=C(C1CC1)N1C[C@H]2CCCN(S(=O)(=O)c3ccc4c(c3)CCC4)[C@H]2C1`: 3.41%; `CN(C)c1ncc(-c2ccncc2)c(CCNC(=O)C2CC2)n1`: -5.57%; `CCc1ccccc1NC(=O)NCc1nnc(SC)n1C`: -5.85%.

For `COc1ccccc1NC(=O)NCc1nnc(SC)n1C`, the cytotoxicity at 70.5 h is -5.92%. Next, `CSc1nnc(CNC(=O)Nc2ccccc2Br)n1C`: -3.94%. To `Cc1cnc(-c2nc(C3CCN(Cc4ccccc4C)CC3)no2)cn1` belongs -8.63%; to `Cn1cc(C2=NOC(C(=O)NC3(c4cccc(F)c4)CCCC3)C2)cn1` (configuration not stated), -4.3%; to `CCn1cc(S(=O)(=O)NCC(c2ccccc2)N2CCOCC2)c(C)n1` (configuration not stated), 18.1%. Next, `O=C(Nc1ccc2c(c1)OCCO2)c1ccc(=O)[nH]n1`: 15.5%. Take `COCCC(=O)N1CCCC([C@@H]2C[C@H](C(F)F)n3ncnc3N2)C1` (some centres not stated): the cytotoxicity at 70.5 h was -4.06%. Next, `CC(=O)N1CCCC1c1ccc(Br)cn1` (configuration not stated): 1.79%.

For `Cn1ncc2ccc(C3CCCN(C(=O)Cc4cccs4)C3)nc21` (configuration not stated), the cytotoxicity at 70.5 h came to 13.1%. To `Cn1ccc(C(=O)NCC2(O)CCN(c3cnccn3)C2)n1` (configuration not stated) belongs -1.53%; to `COc1ccc(F)cc1C(=O)N1C[C@H]2C[C@H](OC)C[C@H]2C1`, -6.25%; to `CO[C@H]1C[C@@H]2CN(C(=O)Cc3ccc(C)s3)C[C@@H]2C1`, -2.91%. Next, `CCn1ncc(S(=O)(=O)N[C@@H]2CC[C@@H](n3ccnc3C)[C@@H]2O)c1C`: -5.15%. Next, `CO[C@@H]1CC[C@@H](NC(=O)c2ccc(OCCN3CCCC3)cc2)[C@H]1O`: -4.63%; `CO[C@H]1CN(Cc2nc3ccccc3n2C)C[C@@]12CCCO2`: 7.3%. Take `Cc1cccc(C2CCCN(S(=O)(=O)c3cccnc3)C2)n1` (configuration not stated): the cytotoxicity at 70.5 h was -2.36%. To `CCN(CC)C(=O)c1cc(C2(C)CCN(C(C)=O)CC2)nc(C)n1` belongs 4.01%. Regarding `Cc1c[nH]c(C2CCCN(C(=O)CCc3c(C)n[nH]c3C)C2)n1` (configuration not stated), the cytotoxicity at 70.5 h is -2.32%. Turning to `Cc1cccc(CN2CCCC(c3nccs3)C2)n1` (configuration not stated), the cytotoxicity at 70.5 h was -1.28%. Next, `Cn1cc(C(=O)N2C[C@H]3C[C@H](Oc4ccccc4)C[C@H]3C2)cn1`: -3.01%; `Cc1c[nH]nc1C1CCCN(c2cnccn2)C1` (configuration not stated): -2.27%; `O=C1NC2(CCc3ccccc31)CCN(C(=O)c1ccncc1)C2` (configuration not stated): -3.88%.

`CC(CNCc1ccc(Cl)c(Cl)c1)Oc1ccccn1` (configuration not stated): the cytotoxicity at 70.5 h was -1.69%. Next, `c1cc(OCc2ccc3c(c2)OCO3)ccc1CNC1CC1`: 48%.

For the molecule `CC1CCN(CC(=O)NC2CCN(C(C)c3ccccc3)CC2)CC1` (configuration not stated), the cytotoxicity at 70.5 h is -12.3%. Take `CN(C)[C@@H]1CN(Cc2ccccn2)C[C@H]1c1cn(C)c2ccccc12`: the cytotoxicity at 70.5 h was found to be 12%. Next, `CN(C)[C@@H]1CN(Cc2ccccc2O)C[C@H]1c1cn(C)c2ccccc12`: 44.4%; `CNCc1ccc([C@@H]2CN(C(C)=O)C[C@H]2C(=O)N(C)C)cc1`: -1.57%. Next, `CCc1ncc(CN(CCc2ccccc2)Cc2cccs2)cn1`: -2.18%.

Values taken from ChEMBL document CHEMBL3507680, “University of Dundee, Gates Library screen for HepG2 cell viability”.
